Test results from PubChem BioAssay AID1944 (The Scripps Research Institute Molecular Screening Center, 2009).
Activity calls are given as the source filed them. No rule for the calls is given here.

molecular target: Replicase polyprotein 1ab (Severe acute respiratory syndrome coronavirus) (UniProt P0C6X7); assay: papain-like protease inhibition, dose response, biochemical, luminescence, counter-screen for SARS-CoV 3CLpro inhibitor project (AID 1944); details: SARS-CoV PLpro enzymatic assay

| Compound | IC50 |
| --- | --- |
| CN(C)S(=O)(=O)c1cccc(NC(=O)CSc2cccc3cccnc23)c1 | > 59.6 µM (inactive) |
| C[C@@]12C(=O)N(c3cccc(Br)c3)C(=O)N1[C@H](c1ccc(Cl)cc1)[C@@H]1C(=O)N(C3CCCCC3)C(=O)[C@@H]12 | > 59.6 µM (inactive) |
| CC(C)C[C@H](NC(=O)c1nc[nH]c1C(=O)NCc1ccc(CNC(=O)OC(C)(C)C)cc1)C(=O)OC(C)(C)C | > 59.6 µM (inactive) |
| COc1ccc(N(C(=O)Cn2nnc3ccccc32)C2(C(=O)NC3CCCC3)CCCCC2)cc1 | > 59.6 µM (inactive) |
| CCN(CC)C(=O)Cn1cc(/C=C2\C(=O)NC(=O)N(c3ccccc3F)C2=O)c2ccccc21 | > 59.6 µM (inactive) |
| Cc1cc(=O)oc2cc(NC(=O)Cc3ccccc3[N+](=O)[O-])ccc12 | > 59.6 µM (inactive) |
| O=C(O)c1ccc2ncsc2c1 | 7.39 µM |
| NC(=O)CCn1c(C(=O)c2ccc(Cl)cc2)c2ccccc2[n+]1[O-] | > 59.6 µM (inactive) |
| COc1ccccc1/C=C/C(=O)c1cc(Br)ccc1OC(=O)c1ccco1 | inactive |
| Cc1cc(NC(=O)COC(=O)C(Nc2ccc(C(F)(F)F)cc2Cl)C(C)C)no1 (stereo not drawn) | > 59.6 µM (inactive) |
| O=C(/C=C/c1ccc(Cl)c([N+](=O)[O-])c1)NCc1cccnc1 | > 59.6 µM (inactive) |
| O=C(Cn1nnc2ccccc21)c1ccc(Cl)cc1 | 3.97 µM |
| COc1ccc(C(C(=O)NCC2CCCO2)N(C(=O)Cn2nnc3ccccc32)c2ccc(NC(C)=O)cc2)cc1 (stereo not drawn) | > 59.6 µM (inactive) |
| O=c1[nH]c(=O)n(-c2ccccc2F)c(O)c1/C=C1\C=Nc2ccccc21 | > 59.6 µM (inactive) |
| Cc1cc(C(=O)CCl)c(C)n1-c1cccc([N+](=O)[O-])c1 | > 59.6 µM (inactive) |
| CCc1cc(=O)oc2cc(OC(=O)c3ccco3)ccc12 | > 59.6 µM (inactive) |
| Cc1cc(NC(=O)COn2nnc3ccc(S(C)(=O)=O)cc32)ccc1Br | > 59.6 µM (inactive) |
| NC(=O)CCn1c(C(=O)c2cc(Cl)c(N)c(Cl)c2)c2ccccc2[n+]1[O-] | > 59.6 µM (inactive) |
| Cc1cc(C)c(C)c(S(=O)(=O)N2CCN(C(=O)c3cc(=O)[nH]c4ccccc34)CC2)c1C | > 59.6 µM (inactive) |
| CC(C)C12CN(C(=O)c3ccccc3[N+](=O)[O-])CC(C(C)C)(CN(C(=O)c3ccccc3[N+](=O)[O-])C1)C2=O | > 59.6 µM (inactive) |
| CC(=O)NC1C(=O)N(CCN2CCOCC2)c2ccc(F)cc21 (stereo not drawn) | > 59.6 µM (inactive) |
| O=C(Cn1nnc2ccccc21)c1ccc(Br)cc1 | 2.3 µM |
| COc1cccc(C(C(=O)NCc2ccco2)N(Cc2ccco2)C(=O)Cn2nnc3ccccc32)c1 (stereo not drawn) | > 59.6 µM (inactive) |
| CCCCOc1ccc(C(=O)Oc2cccnc2)cc1 | 1.61 µM |

| Compound | IC50 |
| --- | --- |
| Cc1cccc2c1N(CCOc1ccccc1)C(=O)C2=O | > 59.6 µM (inactive) |
| O=C(O)COc1ccc(Br)cc1C(c1c(C(=O)O)[nH]c2ccccc12)c1c(C(=O)O)[nH]c2ccccc12 | inactive |
| O=C(/C=C/c1ccccc1Cl)Nc1cccnc1 | 0.0388 µM |
| COc1ccc(C2CC(c3cccs3)=NN2C(=O)CCl)cc1OC (stereo not drawn) | > 59.6 µM (inactive) |
| O=C(Nc1ccccc1)NN(C(=O)CCl)c1ccccc1 | > 59.6 µM (inactive) |
| COc1cc2c(cc1OC)C(c1cc(Br)ccc1F)N(C(=O)CCl)CC2 (stereo not drawn) | > 59.6 µM (inactive) |
| CC(=O)c1c(OC(=O)c2ccco2)c2ccccc2n1C | > 59.6 µM (inactive) |
| Cc1cc(C)c(N(C(=O)Cn2nnc3ccccc32)C(C(=O)NC(C)(C)C)c2ccsc2)c(C)c1 (stereo not drawn) | > 59.6 µM (inactive) |
| Cc1nnc(SC(=O)N2c3ccccc3Sc3ccccc32)s1 | > 59.6 µM (inactive) |
| Cc1cccc(N2CCN(C(=O)c3cc(=O)[nH]c4ccccc34)CC2)c1C | > 59.6 µM (inactive) |
| O=C1NC(=O)N(c2ccccc2F)C(=O)/C1=C/c1cn(CC(=O)N2CCOCC2)c2ccccc12 | > 59.6 µM (inactive) |
| CC(=O)c1cc(-c2ccccc2)[nH]c1N1CCCC1 | inactive |
| COc1ccccc1OCCNC(=O)c1cc(=O)[nH]c2ccccc12 | > 59.6 µM (inactive) |
| Cc1ccc(C(=O)Oc2ccc3c(c2)ncn3C)cc1 | 0.577 µM |
| O=C(Cc1ccc(Cl)c(Cl)c1)Nc1cccnc1 | inactive |
| O=C(CSc1ccccn1)Nc1nonc1[N+](=O)[O-] | > 59.6 µM (inactive) |
| O=C(Oc1ccc(Br)cc1C(=O)/C=C/c1ccccc1F)c1ccco1 | > 59.6 µM (inactive) |
| CC(=O)NC1C(=O)N(CCN2CCOCC2)c2ccc(Br)cc21 (stereo not drawn) | > 59.6 µM (inactive) |
| O=C(Nc1ccc(OCC(F)(F)C(F)F)c(C(F)(F)F)c1)c1ccccc1O | 0.596 µM |
| CCc1cccc(CC)c1N(COC)C(=O)Cn1nnc2ccccc21 | > 59.6 µM (inactive) |
| CC(C)c1ccc(N(C(=O)c2csnn2)C(C(=O)NC2CCCC2)c2cccnc2)cc1 (stereo not drawn) | > 59.6 µM (inactive) |
| CC(C)c1ccc(N(C(=O)c2ccco2)C(C(=O)NC2CCCC2)c2cccnc2)cc1 (stereo not drawn) | > 59.6 µM (inactive) |
| CC1CCC2C(=O)N(c3cc(Cl)ccc3OC(=O)c3ccco3)C(=O)C2C1 (stereo not drawn) | > 59.6 µM (inactive) |
| O=C(c1cc(=O)[nH]c2ccccc12)N1CCN(c2cccc(C(F)(F)F)c2)CC1 | > 59.6 µM (inactive) |
